# Experimental data published in patent publication US20260116874A1, “HETEROAROMATIC INDOLESULFONAMIDES” (SEED Therapeutics, Inc., priority 2023, published 2026).
# Read-outs that look alike come from different tables or passages of the source.
# Assays:
# [1] = Liver microsomes stability, human; assay type: in vitro ADME
# Protocol: (§1) A 100 μM test compound solution and PC solution (verapamil) was prepared by adding 2 μL of 10 mM stock solution in DMSO to 198 μL of 50% acetonitrile/50% water.
# (§2) Two separate experiments were performed as follows:
# (§3) a) With Cofactors (NADPH): 25 μL of 10 mM NADPH was added to the incubations. The final concentrations of microsomes and NADPH were 0.5 mg/mL and 1 mM, respectively.
# (§4) b) Without Cofactors (NADPH): 25 μL of 100 mM Phosphate buffer was added to the incubations. The final concentration of microsomes was 0.5 mg/mL. The mixture was pre-warmed at 37° C. for 10 minutes.
# (§5) The reaction was started with the addition of 2.5 μL of 100 µM control compound or test compound solutions. Verapamil was used as positive control in this study. The final concentration of test compound or control compound was 1 μM. The incubation solution was incubated in a water bath at 37° C.
# (§6) Aliquots of 30 μL were taken from the reaction solution at 0.5, 15, 30, 45 and 60 minutes. The reaction was stopped by the addition of 5 volumes of cold acetonitrile with IS (100 nM alprazolam, 200 nM caffeine and 100 nM tolbutamide).
# (§7) Samples were then centrifuged at 3,220 g for 40 minutes. An aliquot of 100 μL of the supernatant was mixed with 100 μL of ultra-pure H2O and then used for LC-MS/MS analysis.
# (§8) Single dose PK parameters were also determined for Compound 143, a deuterated derivative of Compound 1, according to the methods described herein. […] Metabolic stability was assessed by measuring the half-life of the test compounds in human and mouse liver microsomes.
# [2] = target: human ether-a-go-go related gene (hERG) channel (Homo sapiens, UniProt Q12809); assay: hERG inhibition assay (SyncroPatch automated patch clamp)
# Protocol: Inhibition of compounds on human ether-a-go-go related gene (hERG) channel was evaluated using a SyncroPatch 3848/384 automated patch clamp system. The SynchroPatch system is an independent method of measuring ion flux through ion channel proteins by measuring currents induced by ion flux into and out of the cell.
# CHO herg-DUO cells stably expressing hERG channel were cultured in a medium containing F12 (HAM) medium, 10% FBS, 100 μg/mL penicillin-streptomycin, […] hygromycin and 100 µg/mL G418. Cells were split using TrypLE™ Express about three times a week, and maintained at about 80% confluence.
# Compounds were prepared as a 50 mM stock solution in DMSO. The stock solution of each compound was serially diluted with DMSO to prepare 30 mM, 10 mM, 3.3 mM and 1.1 mM solutions. Working solutions 60 μM, 20 μM, 6.6 μM and 2.22 μM were prepared by 500-fold dilution of the […], 30 mM, 10 mM, 3.3 mM and 1.1 mM solutions, respectively using extracellular NMDG60 solution (80 mM NaCl, 60 mM N-methyl-d-glucamine, 4 mM KCl, 2 mM CaCl2, 1 mM MgCl2, 5 mM D-glucose and 10 mM HEPES).
# Cells were harvested and added to SyncroPatch 384 chip (Nanion Technologies) and washed four times. Following establishment of the whole-cell voltage clamp configuration, cells were set to a holding potential of −90 mV for measured for 500 ms and currents were at 500 Hz and filtered at 3 kHz. The hERG current was elicited by depolarizing the membrane to +30 mV for 4.8 sec and the voltage was then taken back to −50 mV for 5.2 sec to remove the inactivation and measure the deactivating tail current for a sample interval of 15 s. The maximum amount of tail current size was used to determine hERG current amplitude. hERG current in the presence of test compounds was recorded for at least 5 min to reach a steady state and then 5 sweeps were captured. If a steady state was not reached within 10 minutes, the average peak current of the last 5 sweeps was substituted for the steady state value.
# [3] = Single dose plasma pharmacokinetics after IV and PO administration; assay type: in vivo, female BALB/c mice; conditions: for F: PO 20 mg/kg vs IV 1 mg/kg; for F / AUC(0-t) / Cmax / AUC(0-inf) / C0 / clearance / half-life / Vd / Tmax: female BALB/c mice; for AUC(0-t) / Cmax: female, BALB/c; for AUC(0-t) / Cmax / AUC(0-inf) / C0 / clearance / half-life / Vd / Tmax: mouse, plasma; for Vd: read-out: Vss
# Protocol: Single dose PK parameters in plasma were determined following intravenous administration of compound 1 and comparative compound E7820 at 1 mg/kg by using the formulation of 10% DMSO/30% PEG400/60% Saline. The plasma samples were collected at the following time points: 0.083, 0.25, 0.5, 1, 2, 4, 8 and 24 hrs post-dose. The concentrations in plasma were determined.
# Single dose PK parameters in plasma were determined following oral gavage of Compound 1 and comparative compound E7820 at 20 mg/kg by using the formulation of 0.5% MC (400 cps) and 0.1% Tween80 in water. The plasma samples were collected at the following time points: 0.25, 0.5, 1, 2, 4, 8 and 24 hrs post dose.
# as §8
# [4] = Liver microsomes stability, mouse; assay type: in vitro ADME
# Protocol: as §1, §2, §3, §4, §5, §6, §7, §8
# [5] = 1 μM, Table 3, read-out: Metabolic Stability Half-life, human
# [6] = Table 6, read-out: Metabolic Stability Half-life, Human
# [7] = iv, 1 mg/kg, IV 1 mg/kg, read-out: AUC(0-t)
# [8] = po, 20 mg/kg, AUC(0-8 hr), oral administration, Table 7
# [9] = po, 20 mg/kg, PO 20 mg/kg, read-out: AUC(0-t)
# [10] = po, 20 mg/kg, oral administration, Table 7
# [11] = 1 μM, Table 3, read-out: Metabolic Stability Half-life, mouse
# [12] = Table 6, read-out: Metabolic Stability Half-life, Mouse
# Chain of human ether-a-go-go related gene (hERG) channel (Q12809 whole entry): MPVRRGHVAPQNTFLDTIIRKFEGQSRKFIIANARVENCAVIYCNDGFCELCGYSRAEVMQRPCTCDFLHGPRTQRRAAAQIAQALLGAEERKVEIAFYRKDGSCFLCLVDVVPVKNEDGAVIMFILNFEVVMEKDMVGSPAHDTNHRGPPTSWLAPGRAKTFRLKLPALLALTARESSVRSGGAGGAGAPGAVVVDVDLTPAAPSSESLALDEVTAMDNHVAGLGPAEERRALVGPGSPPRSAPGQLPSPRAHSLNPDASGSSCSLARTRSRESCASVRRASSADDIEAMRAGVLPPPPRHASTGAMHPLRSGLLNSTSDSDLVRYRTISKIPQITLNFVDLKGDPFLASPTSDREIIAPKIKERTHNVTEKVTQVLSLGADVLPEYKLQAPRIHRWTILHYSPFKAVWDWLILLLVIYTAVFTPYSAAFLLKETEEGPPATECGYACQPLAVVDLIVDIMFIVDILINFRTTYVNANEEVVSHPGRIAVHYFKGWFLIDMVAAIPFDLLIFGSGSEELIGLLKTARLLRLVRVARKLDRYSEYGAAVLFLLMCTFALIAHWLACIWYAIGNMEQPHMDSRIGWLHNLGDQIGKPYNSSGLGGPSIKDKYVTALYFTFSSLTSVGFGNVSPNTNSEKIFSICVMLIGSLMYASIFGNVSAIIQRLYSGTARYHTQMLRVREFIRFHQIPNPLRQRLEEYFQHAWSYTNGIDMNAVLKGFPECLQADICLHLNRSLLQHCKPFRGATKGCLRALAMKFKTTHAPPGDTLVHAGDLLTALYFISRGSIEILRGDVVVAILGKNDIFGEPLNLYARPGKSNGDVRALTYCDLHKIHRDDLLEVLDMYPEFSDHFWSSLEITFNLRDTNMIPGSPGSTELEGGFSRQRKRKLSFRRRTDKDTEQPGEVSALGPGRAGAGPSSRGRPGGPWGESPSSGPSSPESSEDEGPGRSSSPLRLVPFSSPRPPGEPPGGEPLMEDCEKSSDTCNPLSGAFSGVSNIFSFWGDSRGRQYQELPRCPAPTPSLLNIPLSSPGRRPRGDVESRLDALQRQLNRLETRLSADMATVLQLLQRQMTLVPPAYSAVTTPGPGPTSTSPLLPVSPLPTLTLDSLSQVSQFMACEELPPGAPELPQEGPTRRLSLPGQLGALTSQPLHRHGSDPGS
SMILES,"half-life at 1 µM [1, 5] [min]","half-life at 1 µM [1, 6] [min]",IC50 [2] [µM],hERG inhibition compared to E7820 [2],F [3] [%],"AUC(0-t) [3, 7] [ng·h/mL]","AUC(0-t) [3, 8] [ng·h/mL]","Cmax ([3]; po, 20 mg/kg, PO 20 mg/kg) [ng/mL]","AUC(0-t) [3, 9] [ng·h/mL]","Cmax [3, 10] [ng/mL]",AUC(0-inf) ([3]; IV 1 mg/kg) [ng·h/mL],C0 ([3]; IV 1 mg/kg) [ng/mL],clearance ([3]; IV 1 mg/kg) [mL/min/kg],half-life ([3]; IV 1 mg/kg) [min],Vd ([3]; IV 1 mg/kg) [L/kg],Tmax ([3]; PO 20 mg/kg) [min],"half-life at 1 µM [4, 11] [min]","half-life at 1 µM [4, 12] [min]",also measured
"Cc1ncc(S(=O)(=O)Nc2ccc(C)c3c(C#N)c[nH]c23)s1 [Compound 1, N-(3-cyano-4-methyl-1H-indol-7-yl)-2-methyl-thiazole-5-sulfonamide]",66.2,66,> 50,less inhibition,407,1860,62300,25900,151000,9850,1860,6060,9.4,40.2,0.201,140,47.1,47,"AUC(0-inf) ([3]; PO 20 mg/kg): 190000 ng·h/mL; half-life ([3]; PO 20 mg/kg): 151 min; increase in plasma AUC compared to E7820 ([3]; oral administration, compared to control compound E7820): greater than 2 fold"
"[2H]C([2H])([2H])c1ncc(S(=O)(=O)Nc2ccc(C)c3c(C#N)c[nH]c23)s1 [Compound 143, N-(3-cyano-4-methyl-1H-indol-7-yl)-2-(methyl-d3)thiazole-5-sulfonamide]",,93,> 50,less inhibition,,,107000,,,19300,,,,,,,,67,"plasma AUC compared to Compound 1 ([3]; oral administration, compared to Compound 1, in words): increase"
"Cc1ccc(NS(=O)(=O)c2cccc(C#N)c2)c2[nH]cc(C#N)c12 [Compound E7820, E7820, reference compound]",50.7,51,48.4,,202,1640,,11500,66200,,1650,3150,10.2,32.5,0.393,160,28.7,29,
